The results in this text go back to US20240254077A1, “METHODS OF TREATING CHRONIC OBSTRUCTIVE PULMONARY DISEASE INCLUDING COMPOUNDS USEFUL THEREIN” (The Trustees of Columbia University in the City of New York, priority 2021, published 2024).

Entries after “also recorded” stand apart in the source; their conditions may differ. Where two headings read alike, the source gives them in different places.

Experiment [1] concerns MMP1. In words: MMP1 concentration, fluoxetine derivatives on SAEC (FIG. 6). The class given is cell-based, human. From the text: FIG. 6: MMP1 activity—fluoexetine derivatives on SAEC. Comparison of Derivatives 1-6 on MMP1 concentration.
Experiment [2] has as its system TLR-4. In words: TLR-4 signaling (TLR-4 expression, phospho-IRAK) in CSE exposed SAEC cultures. The class given is cell-based, human. How it is done: (§1) These molecules were tested for their capacity to modulate MMP-1 smoke induced transcriptional activation. […] As such, we next exposed human small airway epithelial cells to cigarette smoke extract followed by treatment with fluoxetine.
(§2) For each positive hit and fluoxetine, the DRC is used to derive their respective IC50's and Hill slopes. The concentration required to achieve a 50%, 75% and 99.9% fractional effect is calculated using the formula: [Cf]=[(fraction/100-fraction) ^(1/Hill slope)]IC50. The effect of each calculated concentration on cell viability is tested in triplicate on primary human small airway epithelial cell (hSAEC) culture via MTT assay. […] The chosen concentrations are tested on SAEC cultures exposed to 5% cigarette smoke extract for 24 h to assess their effects on MMP1 and TLR4 expression via mRNA extraction to analyze transcript levels by real-time RT-PCR. Culture media is collected and MMP1 secretion assessed by ELISA (R&D Systems, MN). Protein collected for western blot is used to assess IRAK phosphorylation, a known downstream effector of TLR4 activity.

In experiment [3] the test system is MMP-1. The experiment is described as follows: MMP-1 expression and secretion in CSE exposed small airway epithelial cell (SAEC) cultures. The class given is cell-based, human. Particulars: for MMP1 expression / MMP1 induction: SAEC, 5% CSE, varying doses (dose response). The procedure: FIG. 2: Fluoxetine inhibits MMP-1 production and TLR-4 signaling in CSE exposed SAEC cultures.
(A) Fluoxetine. (B) Derivative 2. (C) Derviative 5. SAEC cultures were treated with 5% CSE and varying doses of Fluoxetine, Derivative 2 and Derivative 5, respectively. Treatment with the derivatives decreased MMP1 induction after cigarette smoke treatment.
The compounds in this clinical set have all been tested and utilized in humans for various indications. These molecules were tested for their capacity to modulate MMP-1 smoke induced transcriptional activation. […] Prior work in our lab was critical in establishing MMP-1 as a destructive agent in the progression of COPD in humans. As such, we next exposed human small airway epithelial cells to cigarette smoke extract followed by treatment with fluoxetine.
as §2, with “Aim 1b: Determining if potential CL(s) maintain their ability to inactivate MMP1 transcription and inflammatory pathways via inhibition of TLR4 signaling in human small airway epithelial cells. For” for “For”, “activity. In addition, PCR arrays (ThermoFisher, MA) that measure the expression of cytokines that have been implicated in the pathogenesis of COPD, their receptors and the expression of transcription factors that regulate the cellular response to oxidants and CSE exposure are used to determine the ability of each derivative to suppress inflammatory signaling in smoke exposed cells.” for “activity.”
SAEC cultures were treated with 5% CSE and varying doses of Fluoxetine, Derivative 2 and Derivative 5, respectively. Treatment with the derivatives decreased MMP1 induction after cigarette smoke treatment.

Experiment [4] relates to smoke exposed mice. In words: Cigarette smoke exposed mice, inflammatory BALF cell counts. The following applies: cigarette smoke 10 days, oral. The class given is in vivo, mouse. From the text:
FIG. 4: Oral fluoxetine treatment in smoke exposed mice reduces inflammatory BALF cell counts. […] (B) Representative cytospin DifQuik stains for each experimental group.

Experiment [5] relates to MMP1 promoter. The experiment is described as follows: MMP1 promoter luciferase reporter screen in CSE-treated transfected HEK 293T cells. Format: cell-based, human. The following applies: NIH clinical collection screen. How it is done: as §1
Experiment [6] deals with smoke exposed rabbits. Particulars: cigarette smoke 16 weeks, oral; for mean linear intercept (morphometric analysis): versus smoke alone. From the text:
(C) Representative H&E stains for each treatment group.
As the next step, we observed the ability of oral duloxetine to inhibit cigarette smoke induced up-regulation of MMP1 and lung destruction in a rabbit model. Rabbits were utilized for these experiments since unlike mice they produce MMP-1. Rabbits were exposed to cigarette smoke for 16 weeks while receiving placebo or orally administered duloxetine.
To assess the effects of SSRIs on the cigarette smoke induced inflammatory response, we utilized smoke-exposed mice.

The subject of experiment [7] is IL-8. The experiment is described as follows: IL-8 expression in CSE treated SAEC, dose response. Format: cell-based, human. Particulars: 5% CSE, varying doses.

On to `CCNC(=S)N(C)CCC(Oc1ccc(C(F)(F)F)cc1)c1ccccc1` (stereo not shown) [Derivative 3, 3-ethyl-1-methyl-1-(3-phenyl-3-(4-(trifluoromethyl)phenoxy)propyl)thiourea], for which the MMP1 concentration result in experiment [1] (2 μM) was “did not show any reduction of MMP1”; in experiment [1] (5 μM), “did not show any reduction of MMP1”; in experiment [1] (10 μM) it was “significant reduction of MMP1”.

Consider `CNCCC(Oc1ccc(C(F)(F)F)cc1)c1ccccc1` (stereo not shown) [Fluoxetine], for which, in experiment [2], the TLR-4 expression result was “decreased expression; also recorded: abrogates the CSE induced increase in TLR-4 expression” and the “phospho-IRAK (downstream effector of TLR-4)” value is “decreased expression; also recorded: abrogates”. In experiment [3] (5% CSE exposed SAEC cultures), the “MMP1 present in the media (secretion)” value is “decreased MMP-1 expression and secretion; also recorded: decreases MMP1 present in the media”; the “expression of MMP1 transcript (PCR)” value is listed as “decreased MMP-1 expression”. The “expression of MMP1 transcript (PCR)” value in experiment [3] (5% CSE exposed SAEC cultures, listed as fluoxetine) is “inhibits expression of MMP1 transcript”. The “inflammatory cell counts in lung lavage fluid (BALF)” value in experiment [4] is recorded as “decreases the cell count”. Further, the “inflammatory cell counts in lung lavage fluid (BALF)” value in experiment [4] (listed as fluoxetine) is recorded as “decreased inflammatory cell counts”. For the same compound, the “inhibition of cigarette smoke induced MMP-1 production (MMP-1 smoke induced transcriptional activation)” value in experiment [5] is “potent inhibitors”.

Consider `CN(CCC(Oc1ccc(C(F)(F)F)cc1)c1ccccc1)S(C)(=O)=O` (stereo not shown) [Derivative 6, N-methyl-N-(3-phenyl-3-(4-(trifluoromethyl)phenoxy)propyl)methanesulfonamide], for which the MMP1 concentration entry in experiment [1] (5 μM) and in experiment [1] (10 μM) was “significantly decreasd MMP1 concentrations” throughout.

In the case of `CNCC[C@H](Oc1cccc2ccccc12)c1cccs1` [Duloxetine], the “MMP1 in bronchoalveolar lavage fluid (ELISA)” value in experiment [6] is “decreases MMP1 present in the BALF”; in experiment [6] (listed as duloxetine) it was “reduced MMP1 levels”. Also, the “mean linear intercept (morphometric analysis)” value in experiment [6] is “significantly reduced mean linear intercept”; in experiment [6] (listed as duloxetine) it was “decreased mean linear intercepts”. The “inhibition of cigarette smoke induced MMP-1 production (MMP-1 smoke induced transcriptional activation)” value in experiment [5] was “potent inhibitors”.

Consider `Cc1ccc(S(=O)(=O)N(C)CCC(Oc2ccc(C(F)(F)F)cc2)c2ccccc2)cc1` (stereo not shown) [Derivative 5, N,4-dimethyl-N-(3-phenyl-3-(4-(trifluoromethyl)phenoxy)propyl)benzenesulfonamide], for which the MMP1 concentration result in experiment [1] (5 μM) and in experiment [1] (10 μM) was “significantly decreasd MMP1 concentrations” in each case. In addition, in experiment [3], the “MMP1 expression / MMP1 induction” value is given as “reduces MMP1 expression”. Further, the IL-8 expression result in experiment [7] was “reduces IL-8 expression”.

In the case of `CCCCN(C)CCC(Oc1ccc(C(F)(F)F)cc1)c1ccccc1` (stereo not shown) [Derivative 1, N-methyl-N-(3-phenyl-3-(4-(trifluoromethyl)phenoxy)propyl)butan-1-amine], the MMP1 concentration entry in experiment [1] (5 μM) and in experiment [1] (10 μM) was “significantly decreasd MMP1 concentrations” in each case.

Turning to `CCC(=O)N(C)CCC(Oc1ccc(C(F)(F)F)cc1)c1ccccc1` (stereo not shown) [Derivative 4, N-methyl-N-(3-phenyl-3-(4-(trifluoromethyl)phenoxy)propyl)propionamide], the MMP1 concentration result in experiment [1] (2 μM), in experiment [1] (5 μM) and in experiment [1] (10 μM) was “did not show any reduction of MMP1” throughout.

With `CCNC(=O)N(C)CCC(Oc1ccc(C(F)(F)F)cc1)c1ccccc1` (stereo not shown) [Derivative 2, 3-ethyl-1-methyl-1-(3-phenyl-3-(4-(trifluoromethyl)phenoxy)propyl)urea], the MMP1 concentration entry in experiment [1] (5 μM) and in experiment [1] (10 μM) was “significantly decreasd MMP1 concentrations” each time. Besides, the “MMP1 expression / MMP1 induction” value in experiment [3] was “reduces MMP1 expression”. Also, the IL-8 expression entry in experiment [7] is given as “reduces IL-8 expression”.
